According to US8492397B2, “Aminopyridine derivatives having Aurora A selective inhibitory action” (Vertex Pharmaceuticals Incorporated, priority 2009, dated 2013):

How the values were obtained:
Aurora A = target: T1, Aurora A (Homo sapiens, UniProt O14965); experiment: Aurora A inhibitory action (33P-ATP Kemptide phosphorylation, filter assay); assay type: biochemical; conditions: His-tagged Aurora A, 100 μM Kemptide, 20 μM ATP, 30° C., 20 minutes
T1 construct: histidine tag (N); made in house; host or cells: Escherichia coli BL21-CodonPlus(DE3)-RIL
T1 sequence (O14965 1-403): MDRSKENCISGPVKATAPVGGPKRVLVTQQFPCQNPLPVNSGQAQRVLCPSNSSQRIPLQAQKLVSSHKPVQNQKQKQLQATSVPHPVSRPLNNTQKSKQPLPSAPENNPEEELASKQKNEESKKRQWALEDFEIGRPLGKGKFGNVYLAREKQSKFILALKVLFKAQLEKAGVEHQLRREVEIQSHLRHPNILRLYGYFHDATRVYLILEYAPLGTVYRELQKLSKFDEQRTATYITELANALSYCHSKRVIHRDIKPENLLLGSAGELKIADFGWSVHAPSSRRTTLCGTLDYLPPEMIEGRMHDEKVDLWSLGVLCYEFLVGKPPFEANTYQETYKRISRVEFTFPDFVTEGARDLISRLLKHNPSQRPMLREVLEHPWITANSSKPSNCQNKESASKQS
From the text: (§1) cDNA of Aurora A having histidine tag fused at the amino terminal was integrated into an expression vector, which was then highly expressed in Escherichia coli BL21-CodonPlus(DE3)-RIL cells. The Escherichia coli cells were recovered and solubilized, and then the histidine-tagged Aurora A protein was adsorbed onto a nickel chelate column and eluted from the column with imidazole. The active fraction was desalted with a desalting column to give a pure enzyme.
For measurement of the activity of Aurora A, the substrate used was Kemptide (Leu-Arg-Arg-Ala-Ser-Leu-Gly) (SEQ.ID.NO.: 1), a synthetic peptide purchased from Sigma-Aldrich, Inc. [Certificate of analysis (Upstate, Inc.)].
Reaction was conducted by a partial modification of a method by Upstate, Inc. [Kinase Profiler™ Assay Protocols]. The amount of the reaction liquid was 21.1 μL, and the composition of the reaction buffer (R2 buffer) was 50 mM Tris-hydrochloride buffer (pH 7.4)/15 mM magnesium acetate/0.2 μM ethylenediamine-N,N,N′,N′-tetraacetate (EDTA). To this, purified Aurora A, 100 μM of a substrate peptide, 20 μM of unlabeled adenosine triphosphate (ATP) and 0.5 μCi of [γ-^33P] labeled ATP (2,500 Ci/mmole or more) were added, and the mixture was reacted at 30° C. for 20 minutes. Then, 10 μL of 350 mM phosphate buffer was added to the reaction system to stop the reaction. The substrate peptide was adsorbed on a P81 paper filter 96-well plate and then washed with 130 mM phosphate buffer for several times. The radiation activity of the peptide was measured with a liquid scintillation counter. The [γ-^33P] labeled ATP was purchased from Amersham Biosciences Co., Ltd.
The compound to be tested was added to the reaction system such that a dilution series of the compound in dimethylsulfoxide was first prepared, and 1.1 μL of this solution was added. A control was provided by adding 1.1 μL of DMSO to the reaction system.

Aurora B = target: T2, Aurora B (Homo sapiens, UniProt Q96GD4); experiment: Aurora B inhibitory action (33P-ATP Kemptide phosphorylation, filter assay); assay type: biochemical; conditions: His-tagged Aurora B, 100 μM Kemptide, 100 μM ATP, 30° C., 20 minutes
T2 construct: histidine tag (N); made in house; host or cells: Escherichia coli BL21-CodonPlus(DE3)-RIL
T2 sequence (Q96GD4 whole entry): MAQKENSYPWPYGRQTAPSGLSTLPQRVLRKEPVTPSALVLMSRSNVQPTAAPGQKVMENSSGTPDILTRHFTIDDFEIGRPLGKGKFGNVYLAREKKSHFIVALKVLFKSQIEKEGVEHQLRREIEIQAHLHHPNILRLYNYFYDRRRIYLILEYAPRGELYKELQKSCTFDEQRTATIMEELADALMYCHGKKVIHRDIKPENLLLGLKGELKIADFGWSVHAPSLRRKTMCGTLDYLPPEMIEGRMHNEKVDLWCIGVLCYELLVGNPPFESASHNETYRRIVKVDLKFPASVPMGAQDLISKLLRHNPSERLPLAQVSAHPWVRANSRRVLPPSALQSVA
From the text: as §1, with “of Aurora B having histidine” for “of Aurora A having histidine”, “column with imidazole, The active” for “column with imidazole. The active”
For measurement of the activity of Aurora B, the substrate used was Kemptide (Leu-Arg-Arg-Ala-Ser-Leu-Gly) (SEQ.ID.NO.: 1), a synthetic peptide purchased from Sigma-Aldrich, Inc, [Certificate of analysis (Upstate, Inc.)].
Reaction was conducted by a partial modification of the method of activity measurement for Aurora A. The amount of the reaction liquid was 21.1 μL, and the composition of the reaction buffer (R2 buffer) was 50 mM Tris-hydrochloride buffer (pH 7.4)/15 mM magnesium acetate/0.2 mM ethylenediamine-N,N,N′,N′-tetraacetate (EDTA). To this, purified Aurora B, 100 μM of a substrate peptide, 100 μM of unlabeled adenosine triphosphate (ATP) and 1 μCi of [γ-^33P] labeled ATP (2,500 Ci/mmole or more) were added, and the mixture was reacted at 30° C. for 20 minutes. Then, 10 μL of 350 mM phosphate buffer was added to the reaction system to stop the reaction. The substrate peptide was adsorbed on a P81 paper filter 96-well plate and then washed with 130 mM phosphate buffer for several times. The radiation activity of the peptide was measured with a liquid scintillation counter. The [γ-^33P] labeled ATP was purchased from Amersham Biosciences Co., Ltd.

IC50 (Aurora A)	IC50 (Aurora B)	Compound
6.2 nM	310 nM	Cc1cc(Nc2cc[nH]n2)nc(N2CC(NC(=O)O[C@@H](C)C(F)(F)F)[C@H](C)C2)n1 (stereo in doubt) [Example 7, (2S)-1,1,1-trifluoropropan-2-yl{(3R,4R)-4-methyl-1-[4-methyl-6-(1H-pyrazol-3-ylamino)pyrimidin-2-yl]pyrrolidin-3-yl}carbamate]
75 nM	5800 nM	Cc1cc(Nc2cc[nH]n2)nc(N2CC(NC(=O)OC(C)(C)C)[C@H](C)C2)n1 (stereo in doubt) [Example 9, tert-butyl {(3R,4R)-4-methyl-1-[4-methyl-6-(1H-pyrazol-3-ylamino)pyrimidin-2-yl]pyrrolidin-3-yl}carbamate]
3.6 nM	210 nM	Cc1cc(Nc2cc[nH]n2)nc(N2CC[C@H](NC(=O)O[C@@H](C)C(F)(F)F)C2)n1 [Example 1, (2S)-1,1,1-trifluoropropan-2-yl{(3S)-1-[4-methyl-6-(1H-pyrazol-3-ylamino)pyrimidin-2-yl]pyrrolidin-3-yl}carbamate]
33 nM	2200 nM	Cc1cc(Nc2cc[nH]n2)nc(N2C[C@@H](O)[C@H](NC(=O)O[C@@H](C)C(F)(F)F)C2)n1 [Example 2, (2S)-1,1,1-trifluoropropan-2-yl{(3R,4R)-4-hydroxy-1-[4-methyl-6-(1H-pyrazol-3-ylamino)pyrimidin-2-yl]pyrrolidin-3-yl}carbamate]
6.4 nM	190 nM	Cc1cc(Nc2cc(C)[nH]n2)nc(N2CC[C@H](NC(=O)O[C@@H](C)C(F)(F)F)C2)n1 [Example 3, (2S)-1,1,1-trifluoropropan-2-yl {(3S)-1-[4-methyl-6-(5-methyl-1H-pyrazol-3-ylamino)pyrimidin-2-yl]pyrrolidin-3-yl}carbamate]
22 nM	3800 nM	Cc1cc(Nc2cc[nH]n2)nc(N2CC[C@H](NC(=O)OC(C)(C)C(F)(F)F)C2)n1 [Example 4, 1,1,1-trifluoro-2-methylpropan-2-yl{(3S)-1-[4-methyl-6-(1H-pyrazol-3-ylamino)pyrimidin-2-yl]pyrrolidin-3-yl}carbamate]
28 nM	1800 nM	Cc1cc(Nc2cc(C)[nH]n2)nc(N2CC[C@H](NC(=O)OC(C)(C)C)C2)n1 [Example 6, tert-butyl {(3S)-1-[4-methyl-6-(5-methyl-1H-pyrazol-3-ylamino)pyrimidin-2-yl]pyrrolidin-3-yl}carbamate]
37 nM	> 10000 nM	CO[C@@H]1CN(c2nc(C)cc(Nc3cc[nH]n3)n2)C[C@H]1NC(=O)O[C@@H](C)C(F)(F)F [Example 8, (2S)-1,1,1-trifluoropropan-2-yl{(3R,4R)-4-methoxyl-1-[4-methyl-6-(1H-pyrazol-3-ylamino)pyrimidin-2-yl]pyrrolidin-3-yl}carbamate]
